The values below come from US20240018470A1, “METHOD OF MANIPULATING PLURIPOTENCY IN CELLS” (YALE UNIVERSITY, priority 2022, published 2024).

No end group written: not given here.

The subject of assay [1] is Xenopus embryos. Kind of assay: Gastrulation scoring (incomplete blastopore closure) in treated or kcnh6-depleted embryos. The assay is classed as in vivo, Xenopus tropicalis. To be noted: blastula/gastrula embryos treated stage 8 to stage 12, 50 nM. The procedure: All injections of Xenopus embryos were performed at the one-cell stage using a fine glass needle and Picospritzer system. A kcnh6 translation blocking (kcnh6 MO, 5′-[…]-3′, SEQ ID NO:1) and a scrambled morpholino oligonucleotide were obtained from Gene Tools LLC and injected at 10 ng to deplete kcnh6 or as a control, respectively. CRISPR sgRNAs for kcnh6 targeted either exon 3 or exon 4 based on the v7.1 gene model of the X. tropicalis genome (CRex3: 5′-[…]-3′, SEQ ID NO:2 and CRex4: 5′-[…]-3′, SEQ ID NO:3). CRISPR sgRNAs for cacna1c (5′-[…]-3′, SEQ ID NO:4) and cacna1g (5′-[…]-3′, SEQ ID NO:5) were designed from the v7.1 model of the Xenopus tropicalis genome. For F0 CRISPR knockdown, embryos were injected with 1.5 ng Cas9 Protein (PNA-Bio) and 400 pg of targeting sgRNA and raised to desired stages. […] Full length human KCNH6 (NM 030779.3; cloned in pCS107), GCaMP6 (subcloned in pCSDest) and mCherry cDNAs (Addgene #34935; in pCS2+), were used to generate capped mRNAs in vitro by first linearizing with appropriate restriction enzymes and then transcribing with the mMessage machine kit (Ambion). mRNAs were injected at 3 pg (human KCNH6), 150 pg (GCaMP6) and 150 pg (mCherry) per embryo. Embryos were raised at 21° C. to allow time for sufficient expression levels at blastula/gastrula stages.
(§1) Normal embryonic medium is 1/9× modified Ringer's (MR) containing 11 mM NaCl, 0.2 mM KCl, 0.2 mM CaCl2), 0.1 mM Mg2Cl and 0.55 mM HEPES. To allow Ergtoxin to penetrate the embryos, the present study manually removed the vitelline envelope of stage 8 embryos and incubated embryos in 1/9×MR containing 50 nM Ergtoxin (Alomone STE-450) until stage 12. Embryos were then transferred back into 1/9×MR lacking Ergtoxin to develop until stage 45 in order to score organ situs. Barium chloride was applied into the medium at 20 mM and embryos were thoroughly rinsed in 1/9×MR after each incubation period for further development in Ba2+-free medium. For extracellular K^+ manipulations, the KCl concentration in 1/9×MR was modified from 0.2 mM (normal) to 20 mM (high) or 0 mM (low). The ionophore valinomycin (ACROS) and L-type VGCC blocker Nifedipine (ACROS) were diluted in DMSO as stock solutions and applied to embryos in 1/9×MR at 2 nM and 10 μM respectively. Treatments performed during gastrulation were applied from stage 8 through stage 12, and embryos were then rinsed thoroughly and returned into 1/9×MR. For rapamycin, the present study created a standard stock solution of 50 mg/ml in DMSO. The stock solution was diluted 1:2500 in the appropriate embryonic media (final 20 μg/ml). Embryos were treated at stage 7 and then fixed at stage 11 for in situ hybridization.
(§2) In experiments where embryos were evaluated for phenotypes and scored (gastrulation, left-right patterning, in situ hybridizations) the present study carried out three to five biological replicates and Fisher's exact test to evaluate statistical significance. The animal cap experiment was performed twice with a total score of four to eight animal caps per experiment. For the calcium transient analyses, data was collected from three to five embryos in each experiment in three independent experiments, and statistical analyses on GCaMP/mCherry fluorescence intensity as well as Ca^2+ transient area were performed using student's t-test. For whole cell electrophysiological recordings, three to five embryos (two cells each) were examined for their membrane potential and statistical significance was tested by student's t-test. Graphs were designed using GraphPad Prism software. Models were created with BioRender.com.

For assay [2], the system named is Xenopus embryos. Kind of assay: Organ situs (left-right patterning) scoring in stage 45 tadpoles. Type of assay: in vivo, Xenopus tropicalis. To be noted: blastula/gastrula embryos treated stage 8 to stage 12, 50 nM. On the procedure:
Stage 45 Xenopus embryos were paralyzed with benzocaine or tricaine and scored with a light stereomicroscope. Cardiac looping was determined by position of the outflow tract; D-loop: rightward, L-loop: leftward; A-loop: midline. Normal intestinal looping was scored as counter-clockwise rotation of the gut, while abnormal intestinal looping was scored as completely inverse gut rotation (clockwise) or complete lack of looping (un-looped). While a completely inverted gut rotation is clearly an abnormality of LR patterning, an unlooped gut is less clear so the present study only considered an unlooped gut as abnormal situs when combined with abnormal placement (left-sided or midline) of the gall bladder. To quantify total abnormal organ situs, each tadpole was counted only once, regardless of whether multiple organs were affected.
as §1, §2

The subject of assay [3] is hESCs. As to the kind of experiment: hESC pluripotency marker immunofluorescence. The assay is classed as cell-based, human. The procedure: hESCs were grown in mTeSR1 ([…] Technologies) in tissue culture dishes coated with Matrigel (Corning; 1:200 in DMEM/F12) and kept at 37° C., 5% CO2. The cell lines used were ESI017 (ESIBIO) and H9.
(§3) Cells were dissociated with accutase and seeded onto 8 well imaging slides (ibidi 80826) at a density of 4-6×10^4/cm^2. Cells were seeded and maintained in Rock-inhibitor Y27672 (MCE; 10 μM) to increase survival and the uniformity of response. Treatments with 1 mM BaCl2 or 10 or 25 nM Ergtoxin or 100 nM rapamycin were initiated 4 hours after seeding. Differentiation was initiated 24 hours after seeding where indicated. To initiate differentiation, the media was replenished with/without BaCl2 or Ergtoxin and treated with the indicated growth factors or small molecules. Cells were incubated for the indicated times without media change before fixation.
Cells were fixed for 30 min in 4% paraformaldehyde, rinsed twice with DPBS (without Ca^2+ and Mg^2+, denoted DPBS^−/−), and blocked for 30 min at room temperature. The blocking solution contained 3% donkey serum and 0.1% Triton X-100 in 1×DPBS^−/−. After blocking, the cells were incubated with primary antibodies at room temperature for 2 hours. Antibodies and concentrations are listed below. Cells were washed three times with DPBST (1×DPBS^−/− with Tween 20) and incubated with secondary antibodies (AlexaFluor 488 A21206, AlexaFluor 555 A31570 and A21432, and AlexaFluor 647 A31571, Thermo Fisher; 1:500) and DAPI for 30 min at room temperature. After secondary antibody incubation, samples were washed in DPBST and then DPBS at room temperature.
Images were acquired using a 20×, NA 0.75 objective on an Olympus IX83 inverted epifluorescence microscope or an Olympus/Andor spinning disk confocal microscope. Cell segmentation was performed using ilastik software. This segmentation was cleaned (to remove debris and to separate merged cells) and mean nuclear protein intensities as well as standard errors were quantified using a custom MATLAB code. Nuclear intensities were normalized by DAPI to correct for intensity variation due to optics. […]

The test system of assay [4] is hESCs. Kind of assay: hESC pluripotency marker qPCR. The assay is classed as cell-based, human. The note with it: 25 nM; OCT4 and SOX2 by day 2, all three genes on day 5. The procedure: hESCs were grown in mTeSR1 (STEMCELL Technologies) in tissue culture dishes coated with Matrigel (Corning; 1:200 in DMEM/F12) and kept at 37° C., 5% CO2. The cell lines used were ESI017 (ESIBIO) and H9. Cells were routinely passaged using dispase (STEMCELL Technologies) and tested for mycoplasma contamination and found negative. For rapamycin experiments, cells were grown in MEF-conditioned HUESM media supplemented with 20 ng/ml bFGF with or without 100 nM rapamycin, which the present study found to increase the survival of rapamycin treated cells compared to cells grown in mTeSR1.
For qPCR, hESCs were grown with or without ErgToxin (25 nM) for the indicated times. RNA collection and DNase treatment were performed using the RNAqueous®-Micro Total RNA Isolation Kit (AM1931) and cDNA was synthesized with the SuperScript Vilo cDNA Synthesis Kit (Fisher Scientific 11754-050). qPCR measurements were collected using SYBR Green reagent (LifeTech-4367659) on a Step OnePlus instrument (Applied Biosciences). Data were normalized using the housekeeping gene GAPDH. Primers for qPCR were: OCT4: 5′-[…]-3′ (SEQ ID NO:12), 5′-[…]-3′ (SEQ ID NO:13), SOX2: 5′-[…]-3′ (SEQ ID NO:14), 5′-[…]-3′ (SEQ ID NO:15), NANOG: 5′-[…]-3′ (SEQ ID NO:16), 5′-[…]-3′ (SEQ ID NO:17), GAPDH: 5′-[…]-3′ (SEQ ID NO:18), 5′-[…]-3′ (SEQ ID NO:19).
(In general: Real-time PCR tracks product formation cycle by cycle.)

The test system of assay [5] is hESCs. As to the kind of experiment: hESC BMP4-induced differentiation, pluripotency marker immunofluorescence. The assay is classed as cell-based, human. To be noted: BMP4 50 ng/ml, at 12 hours; similar trend in NANOG. On the procedure: as §3
Cells were fixed for 30 min in 4% paraformaldehyde, rinsed twice with DPBS (without Ca^2+ and Mg^2+, denoted DPBS^−/−), and blocked for 30 min at room temperature. The blocking solution contained 3% donkey serum and 0.1% Triton X-100 in 1×DPBS^−/−. After blocking, the cells were incubated with primary antibodies at room temperature for 2 hours. Antibodies and concentrations are listed below. […]
Images were acquired using a 20×, NA 0.75 objective on an Olympus IX83 inverted epifluorescence microscope or an Olympus/Andor spinning disk confocal microscope. […] This segmentation was cleaned (to remove debris and to separate merged cells) and mean nuclear protein intensities as well as standard errors were quantified using a custom MATLAB code. […]

As to “Ergtoxin: a scorpion peptide that specifically acts as a pore blocker of the KCNH channel family (Alomone STE-450) (DRDSCVDKSRCAKYGYYQECQDCCKNAGHNGGTCMFFKCKCA; ends and bridges not checked; cysteine pairing not given here; UniProt Q86QT3 21-62, looked up)”, the gastrulation defects entry in the assay on Xenopus embryos [1] was “identical gastrulation and LR defects”. For the same substance, the LR defects result in the assay with Xenopus embryos [2] is “identical gastrulation and LR defects”. For the same substance, the “effect on pluripotency markers in the presence of rapamycin” value in the assay on hESCs [3] (25 nM Ergtoxin with 100 nM rapamycin) is listed as “no effect”. Moreover, the “pluripotency markers OCT4 and SOX2” value with hESCs [3] (hESCs grown for two days, 25 nM Ergtoxin or 1 mM Barium, immunostaining and qPCR) is on record as “modest but significant elevation”. In the assay with hESCs [4], the “OCT4, SOX2 and NANOG transcript level” value is on record as “upregulation of these genes at the transcript level”. For the same substance, the “downregulation of pluripotency markers such as SOX2” value with hESCs [5] is “significant delay”.
